Measurements published in US20160319277A1, “METHODS OF IMPROVED PROTEIN PRODUCTION USING MIRNAs AND SIRNAs” (THE JOHNS HOPKINS UNIVERSITY, priority 2015, published 2016).
Like-named read-outs stand apart in the source and are kept apart here.

System: HEK-CMV-Luc2-Hygro cells
Assay: High-throughput genome-wide siRNA screen and validation screen for luciferase expression
Format: cell-based, human
Conditions: for per_cell / VIA: Table 3; for per_cell: per cell luciferase yield relative to negative control; for VIA: viable cell density as % of negative control; for Luciferase activity (%) / Per cell luciferase yield (%) / Viable cell number (%): Table 6, polyamine pathway gene siRNAs
In short: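 HEK cells with CMV-driven luciferase were reverse-transfected with 0.8 pmol siRNA per well (3 per gene) via RNAiMax and grown 72 h at 37 °C. Duplicate wells read for luciferase (ONE-Glo) and viability (CellTiter-Glo). Values given as % of plate negative-control median with MAD-based z-scores; hits with ≥2 siRNAs at z>3 retested using 3 new siRNAs.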

[1] = Table 4, primary screen, 72 h, negative control = 100%

Substance | Viable cell density (%) [1] [%] | per cell luciferase yield (%) [1] [%] | other results
199 (CUAACUACCCAGACCCUUATT; chemistry not given here; listed as Homo sapiens) [compound 199] | 88.359 | 164.639 | 
78 (CGGAAUCAAUGAUCCUGUATT; chemistry not given here; listed as Homo sapiens) [compound 78] |  |  | per_cell (primary screen, 72 h): 212.7; VIA (primary screen, 72 h): 71.39
73 (GUCCGAGUGUGGUUCUGUATT; chemistry not given here; listed as Homo sapiens) [compound 73] |  |  | per_cell (primary screen, 72 h): 180.4; VIA (primary screen, 72 h): 85.82
129 (GCUAUUUCCAGCGAAUAUATT; chemistry not given here; listed as Homo sapiens) [compound 129] | 81.492 | 244.722 | 
92 (CCAGUUCGACCUGAACAAATT; chemistry not given here; listed as Homo sapiens) [compound 92] |  |  | per_cell (primary screen, 72 h): 176; VIA (primary screen, 72 h): 85.75
147 (GUUUCGACCUCGAUCCAGATT; chemistry not given here; listed as Homo sapiens) [compound 147] | 61.490 | 256.085 | 
117 (GGCUGUACAUAGUCCUUUUTT; chemistry not given here; listed as Homo sapiens) [compound 117] |  | 238.463 | Viable cell density (%): 66.394%
58 (ACAGGUCUUUAUCAAAGCATT; chemistry not given here; listed as Homo sapiens) [compound 58] |  |  | per_cell (primary screen, 72 h): 3.426; VIA (primary screen, 72 h): 100.2
136 (AGGUUACAGAGGACUCAGATT; chemistry not given here; listed as Homo sapiens) [compound 136] | 49.189 | 299.886 | 
177 (CUCUUAUGGUAACCAAUGATT; chemistry not given here; listed as Homo sapiens) [compound 177] | 91.558 | 160.246 | 
171 (CCCUGUUCAUUAUAAGUCUTT; chemistry not given here; listed as Homo sapiens) [compound 171] | 279.253 | 272.683 | 
226 (CACUCGCAGUUAAUAUCAUTT; chemistry not given here; listed as Homo sapiens) [compound 226] |  |  | Luciferase activity (%): 25.2%; Per cell luciferase yield (%): 39.0%; Viable cell number (%): 64.6%
83 (GCGGAAAAGGUAUCCCUCATT; chemistry not given here; listed as Homo sapiens) [compound 83] |  |  | per_cell (primary screen, 72 h): 184.6; VIA (primary screen, 72 h): 80.17
193 (GGGACACUGUCAACCUCUATT; chemistry not given here; listed as Homo sapiens) [compound 193] | 74.811 | 205.132 | 
85 (CUGCCGCAACAAUAAGAAATT; chemistry not given here; listed as Homo sapiens) [compound 85] |  |  | per_cell (primary screen, 72 h): 171.2; VIA (primary screen, 72 h): 82.95
110 (CAAUGAUUCUUACCCUCAATT; chemistry not given here; listed as Homo sapiens) [compound 110] | 77.169 | 257.929 | 
89 (GGAUCACGCAGCUCAAGAUTT; chemistry not given here; listed as Homo sapiens) [compound 89] |  |  | per_cell (primary screen, 72 h): 161.6; VIA (primary screen, 72 h): 91.54
191 (GCCCACUAUUCUCAGCUCATT; chemistry not given here; listed as Homo sapiens) [compound 191] | 66.121 | 214.156 | 
187 (AGAAAGCUUUGGGCAAAUATT; chemistry not given here; listed as Homo sapiens) [compound 187] | 75.570 | 200.070 | 
118 (UGUGGACUGAGGUACCCAATT; chemistry not given here; listed as Homo sapiens) [compound 118] | 58.901 | 247.842 | 
206 (GCUCCUCUGUUACCACAGATT; chemistry not given here; listed as Homo sapiens) [compound 206] | 91.526 | 179.268 | 
128 (CAGCAAACCUUUGACCAGATT; chemistry not given here; listed as Homo sapiens) [compound 128] | 55.405 | 277.511 | 
43 (GCUAAGUCUUUUCCACAGUTT; chemistry not given here; listed as Homo sapiens) [compound 43] |  |  | per_cell (primary screen, 72 h): 155.4; VIA (primary screen, 72 h): 94.54

Substance | Viable cell density (%) [1] [%] | per cell luciferase yield (%) [1] [%] | other results
123 (GGUGUAAUAAUGUCCUUUATT; chemistry not given here; listed as Homo sapiens) [compound 123] | 79.386 | 188.094 | 
79 (AAGUCAACAUAGCCCGAAATT; chemistry not given here; listed as Homo sapiens) [compound 79] |  |  | per_cell (primary screen, 72 h): 145.7; VIA (primary screen, 72 h): 111.5
184 (GCCUGAAUCUUGUCCCAAATT; chemistry not given here; listed as Homo sapiens) [compound 184] | 82.390 | 228.483 | 
70 (GAUUAUCCUUGUACUUUGATT; chemistry not given here; listed as Homo sapiens) [compound 70] |  |  | per_cell (primary screen, 72 h): 141.8; VIA (primary screen, 72 h): 101.9
219 (CAGAUGGAUUAUUAGCUGATT; chemistry not given here; listed as Homo sapiens) [compound 219] |  |  | Luciferase activity (%): 94.9%; Per cell luciferase yield (%): 90.0%; Viable cell number (%): 105.4%
112 (GUUUCAUCUGGGUUCGCUATT; chemistry not given here; listed as Homo sapiens) [compound 112] | 62.659 | 233.649 | 
130 (GGAGGAAUCUCGAAUGCGATT; chemistry not given here; listed as Homo sapiens) [compound 130] | 96.002 | 173.284 | 
148 (CAGCCUCACCAAGCACAAATT; chemistry not given here; listed as Homo sapiens) [compound 148] | 85.866 | 167.413 | 
220 (CCGGGAAAGUUUGACUGCATT; chemistry not given here; listed as Homo sapiens) [compound 220] |  |  | Luciferase activity (%): 101.5%; Per cell luciferase yield (%): 133.9%; Viable cell number (%): 75.8%
104 (GGCGAAUGCUCCUGACUAATT; chemistry not given here; listed as Homo sapiens) [compound 104] | 103.888 | 156.977 | 
221 (CCACGACCAGCUUAAAGAATT; chemistry not given here; listed as Homo sapiens) [compound 221] |  |  | Luciferase activity (%): 90.5%; Per cell luciferase yield (%): 94.5%; Viable cell number (%): 95.76%
163 (CCAGCGAUACAACUCCUAUTT; chemistry not given here; listed as Homo sapiens) [compound 163] | 83.636 | 176.821 | 
132 (GGACGGAAGCGAAAAUCGATT; chemistry not given here; listed as Homo sapiens) [compound 132] | 71.473 | 216.209 | 
93 (CAGCCUCACCAAGCACAAATT; chemistry not given here; listed as Homo sapiens) [compound 93] |  |  | per_cell (primary screen, 72 h): 167.4; VIA (primary screen, 72 h): 85.87
196 (ACAGGUCUUUAUCAAAGCATT; chemistry not given here; listed as Homo sapiens) [compound 196] | 100.201 | 153.426 | 
209 (GAACUUCACAAGUUCCUCATT; chemistry not given here; listed as Homo sapiens) [compound 209] | 84.418 | 228.634 | 
137 (GAACCGUCGCUACAAGACATT; chemistry not given here; listed as Homo sapiens) [compound 137] | 88.616 | 212.905 | 
127 (CCAACUACCUGAACGAUGATT; chemistry not given here; listed as Homo sapiens) [compound 127] | 54.133 | 311.348 | 
57 (GAACGAGUACAGCAAUAUATT; chemistry not given here; listed as Homo sapiens) [compound 57] |  |  | per_cell (primary screen, 72 h): 140.9; VIA (primary screen, 72 h): 108.2
105 (GCGCAAGCUUAAGAACUUUTT; chemistry not given here; listed as Homo sapiens) [compound 105] | 94.579 | 170.349 | 
91 (CAGCAAACCUUUGACCAGATT; chemistry not given here; listed as Homo sapiens) [compound 91] |  |  | per_cell (primary screen, 72 h): 277.5; VIA (primary screen, 72 h): 55.4
153 (CACUUUCCUGGGUAUUGUATT; chemistry not given here; listed as Homo sapiens) [compound 153] | 87.831 | 171.072 | 
119 (CUGCCGCAACAAUAAGAAATT; chemistry not given here; listed as Homo sapiens) [compound 119] | 82.950 | 171.198 | 
